In patent publication US20240197728A1, “METHODS AND PHARMACEUTICAL COMPOSITIONS FOR TREATING REFRACTORY EPILEPSY” (INSERM (INSTITUT NATIONAL DE LA SANTÉ ET DE LA RECHERCHE …, priority 2021, published 2024):

Tested on: SPAK
Assay: Immunoblot of SPAK phosphorylation and expression in hippocampo-cortical slices
Format: cell-based, rat
Settings: vs DMSO
Description: For all experiments on hippocampal cultures, neurons were pre-incubated for 2 hours with either DMSO, PCPZ or CLP257 in a CO2 incubator set at 37° C. Drugs were added directly to the culture medium. For electrophysiology experiments, neurons were also recorded in presence of these drugs in the bath. For biochemistry experiments on rat hippocampo-cortical slices, slices were incubated with either DMSO (vehicle), CLP257, PCPZ, WNK463 or sodium orthovanadate for 2 hours in interface chambers set at 37° C. For human tissue experiments, slices were pre-incubated with either DMSO, CLP257 or PCPZ for 2 hours in interface chambers set at 37° C. and then also recorded in presence of these compounds.
8-weeks old Sprague Dawley male rats were anesthetized by intraperitoneal ketamine/xylazine injection (120/10 mg/kg) and perfused transcardially with ice-cold (0-4° C.), oxygenated solution (O2/CO2 95/5%), containing (in mM): N-methyl-d-glucamine 93, KCl 2.5, NaH2PO4 1.2, NaHCO330, HEPES 20, D-glucose 20, ascorbic acid 5, sodium pyruvate 3, MgSO4 10 and CaCl2) 0.5 (300-310 mOsm, pH7.4). Brains were removed and transverse hippocampo-cortical slices (400 m thick) were prepared in the same solution using a vibratome (HM650V, Microm). Slices were then incubated for 2-hours with DMSO, the KCC2 enhancers (CLP257, PCPZ, WNK43) or sodium orthovanadate in an interface chamber containing artificial cerebrospinal fluid (ACSF) composed of (in mM): D-glucose 10, KCl 3.5, NaHOC3 26, NaH2PO4 1.25, NaCl 126, CaCl2) 1.6 and MgCl2 1.2 (290 mOsm), equilibrated with 5% CO2 in 95% 02. After the treatments, slices were washed with cold PBS, instantaneously frozen with liquid nitrogen and stored at −80° C.
Slices were mechanically lysed on ice, using a 2 mL Dounce, in a buffer containing (in mM): Tris/HCl, pH 7.5 50, EGTA 1, EDTA 1, sodium orthovanadate 1, sodium-B-glycerophosphate 10, sodium fluoride 50, sodium pyrophosphate 5, sucrose 270, benzamidine 1, phenylmethylsulfonyl fluoride 2, Triton […], (v/v) 2-mercaptoethanol 0.1% and protease inhibitors (Roche). After complete homogenization, samples were centrifuged (16,000×g at 4° C. for 10 min) and the supernatant was collected. Protein quantification was done using Pierce BCA Protein Assay kit (Thermo Scientific) with BSA as standard.
Samples were subjected to electrophoresis on polyacrylamide gradient gels (4-12% bis-tris gels) and transferred to nitrocellulose membranes. Membranes were rinsed with TBS-tween solution (TBST; Invitrogen) and blocked with 5% (w/v) skim milk. […] Fluorescence was detected and the relative intensities of immunoblot bands were determined using Odyssey infrared imaging system (LI-COR Bioscience). […]

| Compound | change of SPAK phosphorylation (S373 residue) (10 μM PCPZ, 2 h) | change of SPAK phosphorylation (S373 residue) (100 μM CLP257, 2 h) | change of total expression of SPAK (100 μM CLP257, 2 h) |
| --- | --- | --- | --- |
| CN1CCN(CCCN2c3ccccc3Sc3ccc(Cl)cc32)CC1 [PCPZ, prochlorperazine] | +36.90±48.40% |  |  |
| O=C1N=C(N2CCCCN2)S/C1=C\c1ccc(F)cc1O [CLP257, (5Z)-5-[(4-Fluoro-2-hydroxyphenyl)methylene]-2-(tetrahydro-1-(2H)-pyridazinyl)-4(5H)-thiazolone] |  | +33.30±24.00% | −5.97±17.4% |
